From patent US3987177A, “Vincaminic acid esters” (Synthelabo, priority 1974, dated 1976)
Counter-ions that a name gives are not always drawn. Like-named read-outs stand apart in the source and are kept apart here.

How the values were obtained:
mice of the strain CD1 = assay: Acute toxicity (50% lethal dose) in mice; format: in vivo; conditions: for toxicity compared to vincamine, lower by a factor, intraperitoneal: intraperitoneally; for toxicity compared to vincamine, lower by a factor, intraperitoneal / toxicity compared to vincamine, lower by a factor, oral: factor vs vincamine; for toxicity compared to vincamine, lower by a factor, oral: orally
Mice of the CD1 strain = assay: Anoxia test on mice under low (oxygen) pressure conditions; format: in vivo; conditions: for Protective activity in the anoxia test under reduced pressure conditions, MAD (mean active dose, increases the survival time by 100%): CD1 mice, intraperitoneally 10 minutes before the test, 190 mm of mercury (5.25% oxygen), expressed as the base; for anti-anoxia activity compared to vincamine: mice, in words
Procedure: Mice of the CD1 strain are kept in an atmosphere depleted in oxygen, by producing a partial vacuum (190 mm of mercury, corresponding to 5.25% of oxygen).
The survival time of the animals is noted. This time is increased by agents capable of assisting tissue oxygenation and in particular cerebal oxygenation. The compounds studied are administered in several doses intraperitoneally 10 minutes before the test. The percentage increases in the survival time relative to the values obtained with comparison animals are calculated. The mean active dose (MAD), the dose which increases the survival time by 100%, is determined graphically.

[1] = Acute toxicity (50% lethal dose) in mice; format: in vivo; conditions: mouse, in vivo
femoral artery of dogs = conditions: in words; no test or source given; cited from earlier work
Water solubility = format: physicochemical; conditions: methylsulphonic acid salt
[2] = ip, CD1 mice, intraperitoneal, mortality recorded for 7 days, read-out: Acute toxicity LD50, intraperitoneal
[3] = mice, oral, read-out: Acute toxicity LD50, oral

SMILES | Acute toxicity LD50, intraperitoneal (mice of the strain CD1; CD1 mice, intraperitoneal, mortality recorded for 7 days) [mg/kg] | toxicity compared to vincamine, lower by a factor, intraperitoneal (mice of the strain CD1; mice) | Acute toxicity LD50, oral (mice of the strain CD1; mice, oral, 10080 min) [mg/kg] | toxicity compared to vincamine, lower by a factor, oral (mice of the strain CD1; mice) | Protective activity in the anoxia test under reduced pressure conditions, MAD (mean active dose, increases the survival time by 100%) (Mice of the CD1 strain) [mg/kg] | anti-anoxia activity compared to vincamine (Mice of the CD1 strain) | LD50 at 168 h [1, 2] [mg/kg] | LD50 at 168 h [1, 3] [mg/kg] | vasodilating activity compared to papaverine (known compounds) (femoral artery of dogs) | water solubility (in words) (Water solubility)
CC[C@@]12C=C(C(=O)OC3CC(C)CC(C)(C)C3)n3c4c(c5ccccc53)CCN(CCC1)[C@H]42.Cl (some centres unmarked) [Example 1, 3,3,5-Trimethylcyclohexyl apovincaminate] | 430 | 2 | 2100 | about 5 | 5.5 | markedly greater than that of vincamine | – | – | – | –
CC[C@]12CCCN3CCc4c(n(c5ccccc45)[C@@](O)(C(=O)OC)C1)[C@@H]32 [Vincamine, reference compound] | – | – | – | – | 8 | – | 215 | 460 | at most equal to that of papaverine | –
CCC12C=C(C(=O)OC3CC(C)CC(C)(C)C3)n3c4c(c5ccccc53)CCN(CCC1)C42 (centres unmarked) [Example 3, methylsulphonic acid salt of 3,3,5-trimethylcyclohexyl apovincaminate] | – | 2 | – | about 5 | 5 | markedly greater than that of vincamine | 440 | 2800 | – | water-soluble
